Reference: US6100074A, “Mutant mono-oxygenase cytochrome P-450 cam” (BG plc, priority 1994, dated 2000)

Tests used:
[1] = target: T1, wild type P450cam (Pseudomonas putida, UniProt P00183); experiment: Kapp (dissociation constant), substrate binding, wild-type; conditions: for Kd: WT, [K+] = 70 mM, phosphate buffer, pH 7.4, average of two measurements
Procedure: (§1) Binding of potential substrates was investigated by spectroscopic methods.
(§2) ^a Values are the average of two independent measurements using the
(§3) method of Sligar (S. G. Sligar, Biochemistry, 1976, 15, 5399-5406). The
(§4) value of Kapp is strongly dependent on the concentration of K^+
(§5) in the buffer. At [K^+ ] > 150 mM. Kapp for camphor is 0.6 μM
(§6) for both wildtype and Y96A. Data in this table were determined at [K^
(§7) ] = 70 mM in phosphate buffer, pH 7.4, in order to avoid salting out of
(§8) substrates at higher ion concentrations.
(§9) ^b Saturation not reached.

[2] = target: T2, P-450cam mutant Y96A (Pseudomonas putida, UniProt P00183, Y97A); experiment: Kapp (dissociation constant), substrate binding, Y96A; conditions: for dissociation constants (Kapp) / affinity, in words: Y96A compared to wild-type
Procedure: as §1, §2, §3, §4, §5, §6, §7, §8, §9

[3] = target: T1, wild type P450cam; assay type: binding; conditions: for conversion of haem to high-spin form / shift in absorption spectrum, in words: wild-type
[4] = target: T2, P-450cam mutant Y96A; assay type: binding
[5] = target: T1, wild type P450cam; experiment: biochemical; assay type: binding; conditions: Wild type; 200 μM DTT, 200 μM test compound, phosphate buffer; read-out: Vs DTT (percentage displacement of DTT bound to P-450)
[6] = target: T2, P-450cam mutant Y96A; assay type: biochemical; parameters: key: Those substrates where oxidation has been demonstrated by means of NADH turnover are marked with a + sign
[7] = target: T2, P-450cam mutant Y96A; experiment: Gas chromatography of incubation products, Y96A; assay type: biochemical; conditions: 1 mM diphenylmethane, 1 μM P-450cam, 25° C., 30 min
Procedure: The mutant protein was reconstituted with putidaredoxin and putidaredoxin reductase. Diphenylmethane (5) was added and the mixture was incubated with NADH and oxygen.
(§10) A solution containing 10 μM putidaredoxin, 2 μM putidaredoxin reductase, 1 μM cytochrome P-450cam mono-oyxgenase (wild-type or mutant) and 1 mM diphenylmethane in 100 mM KC1, 20 mM KH2 PO4 pH7.4 was preincubated at 25° C. in a shaker for 5 min. The enzymatic reaction was initiated by firstly adding NADH to a total concentration of 2 mM. Further four aliquots of NADH (to increase the NADH concentration by 1 mM each time) were added in intervals of 5 min and the reaction quenched after 30 min by adding 0.5 ml chloroform. The chloroform layer was analysed by gas chromatography.
Organic extracts of the crude incubation mixture were analysed by gas chromatography. […] The other aromatic hydroxylation products, the ortho and meta isomers, had different retention times. Further confirmation of the identity of the product as structure (6) was provided by mass spectrometry, which gave the correct mass peak at 184.

[8] = target: T3, P450cam mutant Y96A, C334A (Pseudomonas putida, UniProt P00183, C335A/Y97A); assay type: biochemical, P. putida; conditions: also contains C334A
T3 construct: reconstituted with putidaredoxin and putidaredoxin reductase
Procedure: as §10
Reaction products for some substrate compounds have been purified by high performance liquid chromatography and identified by mass spectroscopy, nuclear magnetic resonance, and/or co-elution. […] Table 4(a) to 4(h) details the product distributions for mutant and substrate combinations where this has been elucidated to date.
All mutants listed below also contain the C334A mutation.
Turnover rate measured as NADH consumption rate
(nmole NADH/nmole P450cam/s).

[9] = target: T1, wild type P450cam; experiment: Turnover rate measured as NADH consumption rate, wild type; assay type: biochemical, P. putida; parameters: reconstituted with putidaredoxin and putidaredoxin reductase
[10] = target: T2, P-450cam mutant Y96A; experiment: Hydroxylation of camphor, Y96A; assay type: biochemical; conditions: Y96A compared to wild-type
Text: This decrease in selectivity can be attributed to the loss of the hydrogen bond between Y96 and camphor.

[11] = test system: P-450cam; conditions: wild-type; cited from earlier work
[12] = target: T2, P-450cam mutant Y96A; experiment: biochemical; assay type: binding; conditions: Mutant Y96A; 200 μM DTT, 200 μM test compound, phosphate buffer; read-out: Vs DTT (percentage displacement of DTT bound to P-450)

Structure (SMILES)	Kd [1] [µM]	Kd [2] [µM]	dissociation constants (Kapp) / affinity, in words [2]	conversion of haem to high-spin form / shift in absorption spectrum, in words [3]	conversion of haem to high-spin form, in words [4]	Turnover rate measured as NADH consumption rate [8]	Turnover rate measured as NADH consumption rate [9]	other results
C1CC2CCC1C2 [compound 4, norbornane]	330	92	reduced	fully converted the haem to the high-spin form	–	–	–	–
c1ccc(Cc2ccccc2)cc1 [compound 5, diphenylmethane]	> 1500	73	greatly enhanced affinity	did not give a shift in the absorption spectrum	partial conversion	–	–	binding, in words ([1]; wild-type): bound poorly; inhibition at 200 µM [5]: 5%; NADH turnover? [6]: +; new product peak by GC (para-hydroxydiphenylmethane (6)) [7]: Only one major new peak
C1C2CC3CC1CC(C2)C3 [compound 3, adamantane]	8.4	1.4	reduced	fully converted the haem to the high-spin form	–	–	–	–
CC(C)CC(C)(C)C [2,2,4-trimethyl pentane]	–	–	–	–	–	5.3 nmole NADH/nmole P450cam/s	0.9 nmole NADH/nmole P450cam/s	–
O=C1C2CC3CC(C2)CC1C3 [compound 2, adamantanone]	12	28	increased	fully converted the haem to the high-spin form	not fully converted to the high-spin form	–	–	–
CC12CCC(CC1=O)C2(C)C (centres unmarked) [compound 1, camphor]	6.3	12	increased	–	not fully converted to the high-spin form	–	–	hydroxylation selectivity, in words [10]: less selective; hydroxylation to 5-exo-hydroxycamphor, in words [11]: regio- and stereo-selective hydroxylation
CCCCCCC [n-Heptane]	–	–	–	–	–	4.4 nmole NADH/nmole P450cam/s	2.7 nmole NADH/nmole P450cam/s	ΔSpin high/low (percentage of P-450 converted from low- to high-spin) ([3]; Wild type, 200 μM test compound, phosphate buffer pH 7.4): 5%; inhibition at 200 µM [5]: 5%; percent displacement of bound DTT at 200 µM [12]: 40%; NADH turnover? [6]: +
CC(C)CC(C)C [2,4-dimethyl pentane]	–	–	–	–	–	12.6 nmole NADH/nmole P450cam/s	0.2 nmole NADH/nmole P450cam/s	–
